Measurements published in article PMC7000199, “Indirubin derivatives are potent and selective anti-Trypanosoma cruzi agents” (Virulence, 2018).
Read-outs that look alike come from different tables or passages of the source. Marks after values point to notes of the source that are not given here.

Experiments:
[1] = test system: T. cruzi trypomastigotes (Y strain); test: Cytotoxicity for trypomastigotes (viable parasite count, Neubauer chamber); assay type: cell-based, Trypanosoma cruzi; details: for activity at the screening threshold (in words): threshold 10 μΜ
Description: The trypanocidal activity of the 69 indirubins was initially evaluated against trypomastigotes (Y strain T. cruzi) through the determination of EC50 values. First, the collection of 69 indirubins (Table S1) was screened against the trypomastigote form of T. cruzi parasites at 10 μΜ and 1 μΜ.
The T. cruzi Y strain (DTU II) was used in this study. […] For in vivo analysis, bloodstream trypomastigotes used were obtained from BALB/c mice previously infected intraperitoneally with 10,000 Y trypomastigotes, and then bled after 8–12 days when they reached the peak of parasitaemia.
Trypomastigotes (4x10^5 cells/well) were seeded into 96-well plates and the indirubins were added at eight concentrations ranging from 0.08 to 10 µM, in triplicate. Plates were incubated for 24 h at 37 °C and 5% of CO2. Aliquots of each well were collected and the number of viable parasites, based on parasite integrity and motility, was assessed in a Neubauer chamber and compared to untreated cultures. Three independent experiments were performed.
(§1) The selectivity index (SI) was defined as the ratio of CC50 by EC50 (trypomastigotes). The one-way ANOVA followed by Bonferroni’s multiple comparison test was used to determine the statistical significance of the group comparisons in the in vitro infection and in vivo studies. Results were considered statistically significant when P < 0.05. All analyzes were performed using Graph Pad Prism version 5.01

[2] = test system: murine macrophages J774.1; test: Cytotoxicity to mammalian cells (Alamar Blue); assay type: cell-based, mouse
Description: (§2) Mouse macrophages (J774.1 cell line) were seeded into 96-well plates at a cell number 1 × 10^4 cells/well in DMEM medium supplemented with 10 % of FBS and incubated for 24 h at 37°C and 5% CO2. Samples were then added at eight concentrations (ranging from 0.078 to 10 µM) in triplicate, and incubated for 72 h, followed by the addition of 20 µL/well of Alamar Blue (Invitrogen; Catalog number: DAL1025). Colorimetric readings were performed 24 h later at 570 and 600 nm. CC50 values were calculated using data-points gathered from three independent experiments. Benznidazole was tested in concentrations ranging from 0.78 to 100 µM.
as §1

[3] = test system: T. cruzi intracellular amastigotes; test: In vitro infection assay (infected peritoneal macrophages); assay type: cell-based, Trypanosoma cruzi; details: amastigotes in infected macrophages treated for 6 h, mean ± SD
Description: Peritoneal exudate macrophages were obtained by washing, with cold PBS, the peritoneal cavity of BALB/c mice 4–5 days after injection of 3% thioglycolate (Sigma-Aldrich) in saline (1.5 mL per mice). Then, cells were plated at a cell density of 2 × 10^5 cells/well in 24-well plates with sterile coverslips on the bottom in RPMI supplemented with 10% FBS and incubated for 24 h at 37° C and 5% CO2. Cells were then infected with trypomastigotes at a ratio of 10 parasites per macrophage for 2 h. Free trypomastigotes were removed by successive washes using saline solution. Cultures were incubated in complete medium alone or with the compounds under investigation in different concentrations for 6 h. The medium was replaced with fresh medium and the plate was incubated for 3 days. Cells were fixed in absolute alcohol and the percentage of infected macrophages and the mean number of amastigotes/100 macrophages was determined by manual counting after hematoxylin and eosin staining in an optical microscope (Olympus). The percentage of infected macrophages and the relative number of amastigotes per macrophage was determined by counting 100 cells per slide.
as §1

T. cruzi trypomastigotes = test: Ultrastructural studies (TEM and SEM) of treated trypomastigotes; assay type: cell-based, Trypanosoma cruzi; details: 24 h; for morphological alterations by scanning electron microscopy: EC50 and 2 x EC50 concentration; for ultrastructural alterations by transmission electron microscopy: EC50 concentration
Description: Parasites were then fixed with 2% formaldehyde and 2.5% glutaraldehyde in sodium cacodylate buffer (0.1 M, pH 7.2) for 1 h at room temperature. After fixation, parasites were washed 3 times with sodium cacodylate buffer (0.1 M, pH 7.2), and post-fixed with a 1.0 % solution of osmium tetroxide containing 0.8% potassium ferrocyanide (Sigma-Aldrich; Catalog number: P3289) for 1 h. Cells were subsequently dehydrated in increasing concentrations of acetone (30, 50, 70, 90 and 100%) for 10 min at each step and embedded in polybed resin (PolyScience; Catalog number: 00552–500). Ultrathin sections on copper grids were contrasted with uranyl acetate and lead citrate and observed under a ZEISS 109 transmission electron microscope. For scanning electron microscopy, trypomastigotes treated and fixed in the same conditions were washed in 0.1 M cacodylate buffer, and allowed to adhere in coverslips pre-coated with poly-L-lysine (Sigma-Aldrich; Catalog number: P4707). Cells were then post-fixed with a solution of osmium tetroxide containing 0.8% of potassium ferrocyanide for 30 min and dehydrated in crescent concentrations of ethanol (30, 50, 70, 90 and 100%). The samples were dried until the critical point, metallized with gold and analyzed in a JEOL JSM-6390LV scanning electron microscope. Two independent experiments were performed.

[4] = test system: Y Trypanosoma cruzi strain; test: Infection in mice (acute Chagas disease model); assay type: in vivo, BALB/c mice; details: for Mortality: dead/total, monitored for 30 days after treatment; for % Blood parasitemia reduction in mice at 12 dpi: daily for 5 days from day 5 of infection, versus vehicle group
Description: Female BALB/c mice (18–22 g) were infected with bloodstream trypomastigotes by intraperitoneal inoculation of 10^4 parasites in 100 µL of saline solution and then mice were randomly divided in groups (six animals per group). Before starting the treatment on the fifth day post infection, the infection was confirmed in all animals where on average 0.4 × 10^6 parasites per ml of blood were found. Thus, after day 5 of infection, treatment with 20 mg/kg weight of indirubins 10, 11, 17 and 32 were given orally for five consecutive days. For the control group, benznidazole was given orally at dose of 100 mg/kg weight. Saline containing 20% DMSO was used as a vehicle and administrated on untreated and infected group. Infection was monitored daily by counting the number of motile parasites in 5 µL of fresh blood sample drawn from the lateral tail veins, as recommended by standard protocol. Survival of mice was monitored for 30 days after treatment.

[5] = mouse, in vivo, 20 mg/kg
Description: (§3) Thus, the highest dose was selected (20 mg/kg) and administrated, as described in material and methods section.
(§4) The analysis was performed in 6 mice per group.

[6] = In vivo toxicity: mortality, behaviour, serum and urine renal and hepatic markers; details: mice, 10 or 20 mg/Kg for 5 consecutive days, up to 3 months post treatment
Description: as §3, §4

[7] = Cytotoxicity to mammalian cells (Alamar Blue); assay type: cell-based, mouse; details: mouse, J774.1 macrophage cells; J774.1 cell viability, 72 h post-treatment
Description: as §2, §1

[8] = Table S1, 69 indirubin analogues, read-out: EC50 in T.cruzi trypomastigotes
[9] = trypomastigotes, 24 h post-treatment, mean ± SD of three experiments, read-out: EC50 Try.
[10] = 20 mg/Kg orally, daily for 5 days
[11] = 100 mg/Kg orally, daily for 5 days

In the case of `O=C1Nc2cc(Br)ccc2C1=C1Nc2ccccc2C1=NO` [Compound 6BIO, 3'oxime-6-bromoindirubin], the EC50 [1, 8] is reported as over 10 µM and the “activity at the screening threshold (in words)” value ([1]; trypomastigotes) is reported as “did not exhibit any activity”.
With `O=C1Nc2c(cccc2C(F)(F)F)C1=C1Nc2ccccc2C1=O` [Compound 36] the EC50 [1, 8] was over 10 µM.
`CON=C1C(=C2C(=O)Nc3ccccc32)Nc2ccccc21` [Compound 67] gave an EC50 [1, 8] of over 10 µM.
`Nc1ccc2c(c1)C(=C1Nc3ccccc3C1=NO)C(=O)N2` [Compound 62] showed an EC50 [1, 8] of over 10 µM.
In the case of 3ʹpyrrolidine-6BIO [Compound 17], the EC50 [1, 9] is reported as 0.44 µM, the “cytotoxicity against murine macrophages J774.1 (in words)” value [2] is reported as “lower cytotoxicity” and the CC50 ([2]; J774.1 cell viability, 72 h post-treatment) is reported as 10 µM. For the same compound, the EC50 [3] was 0.9 µM, the “morphological alterations by scanning electron microscopy” value (“morphological alterations” for short) (T. cruzi trypomastigotes) was “extensive loss of plasma membrane integrity” and the “ultrastructural alterations by transmission electron microscopy” value (from here on “ultrastructural alterations”) (T. cruzi trypomastigotes) was “appearance of myelin figures”. For the same compound, the “ultrastructural alterations” value (T. cruzi trypomastigotes; listed as compound 17) was “DNA degradation with pyknotic nuclei”, the “effect on mortality (in words)” value [4, 10] was “protective effect” and the Mortality [4, 10] was 1/6*.
With `O=C1Nc2cc(Br)ccc2C1=C1Nc2ccccc2C1=O` [Compound 55] the EC50 [1, 8] was over 10 µM.
Work on `O=C1Nc2cc(Br)c([N+](=O)[O-])cc2C1=C1Nc2ccccc2C1=NO` [Compound 51] yielded an EC50 [1, 8] of over 10 µM.
In the case of `Cc1cc2c(cc1Br)NC(=O)C2=C1Nc2ccccc2C1=O` [Compound 57], the EC50 [1, 8] is reported as over 10 µM.
With `CC(=O)ON=C1C(=C2C(=O)N(C)c3cc(Br)ccc32)Nc2ccccc21` [Compound 59] the EC50 [1, 8] was over 10 µM.
In the case of `O=C1Nc2ccc(Br)cc2C1=C1Nc2ccccc2C1=NO` [Compound 61], the EC50 [1, 8] is reported as over 10 µM.
Work on `Nc1cc2c(cc1Br)NC(=O)C2=C1Nc2ccccc2C1=O` [Compound 53] yielded an EC50 [1, 8] of over 10 µM.
In the case of 3ʹpiperazine-6-BIO [Compound 11], the EC50 [1, 9] is reported as 0.25 µM, the EC50 [3] is reported as 0.22 µM and the “morphological alterations” value (T. cruzi trypomastigotes) is reported as “extensive loss of plasma membrane integrity”. The “morphological alterations” value (T. cruzi trypomastigotes; listed as compound 11) was “alterations in cell shape and loss of plasma membrane integrity”, the “ultrastructural alterations” value (T. cruzi trypomastigotes) was “appearance of myelin figures” and the “ultrastructural alterations” value (T. cruzi trypomastigotes; listed as compound 11) was “DNA degradation with pyknotic nuclei”. For the same compound, the “effect on mortality (in words)” value [4, 10] was “protective effect”, the Mortality [4, 10] was 1/6 and the “Blood Serum Alanine Aminotransferase (ALT)” value [5] was 29±2 U/I. The “Blood Serum Aspartate Aminotransferase (AST)” value [5] was 135.5±10.5 U/I, the “Blood Serum C-Reactive Protein (CRP)” value [5] was under 0.02 mg/dL and the “Blood Serum Creatinine” value [5] was 0.385 ± 0.015 mg/dL. For the same compound, the “Urine (24h) Creatinine” value [5] was 63±8, the “Urine (24h) Microalbumin (Urine Albumin)” value [5] was 9 ± 1 mg/L and the “Urine (24h) Urine albumin to creatinine ratio (ACR)” value [5] was 0.142. For the same compound, the “signs of toxicity or mortality (in words)” value [6] was “no signs of toxicity”.
Work on `O=C1Nc2cc(F)ccc2C1=C1Nc2ccccc2C1=NO` [Compound 63] yielded an EC50 [1, 8] of over 10 µM.
For `O=C1Nc2cc(Br)c([N+](=O)[O-])cc2C1=C1Nc2ccccc2C1=O` [Compound 54], the EC50 [1, 8] was over 10 µM.
For `CCOP(=O)(OCC)ON=C1C(=C2C(=O)Nc3cc(Br)ccc32)Nc2ccccc21` [Compound 56], the EC50 [1, 8] was over 10 µM.
With `Cc1cc2c(cc1Br)NC(=O)C2=C1Nc2ccccc2C1=NO` [Compound 5-Me-6-BIO, 6-br-5methylindirubin-3ʹoxime] the EC50 [1, 8] was over 10 µM and the “activity at the screening threshold (in words)” value ([1]; trypomastigotes) was “did not exhibit any activity”.
With `O=C(Cn1ccnc1[N+](=O)[O-])NCc1ccccc1` [Benznidazole, reference compound] the EC50 ([1]; Trypanosoma cruzi, 24 h, trypomastigotes, 24 h post-treatment, mean ± SD of three experiments, read-out: EC50 Try.) was 11.3 µM, the CC50 at 72 h [7] was over 100 µM and the EC50 ([3]; Trypanosoma cruzi, Macrophage) was 13.4 µM. For the same compound, the survival rate [4, 11] was 100%, the “% Blood parasitemia reduction in mice at 12 dpi” value ([4]; 100 mg/Kg orally) was > 99* % and the “% Blood parasitemia reduction in mice at 12 dpi” value ([4]; 100 mg/Kg orally, listed as benznidazole) was over 99%. For the same compound, the Mortality [4, 11] was 0/6*.
Compound `CN1C(=O)C(=C2Nc3ccccc3C2=NO)c2ccc(Br)cc21` [Compound 58] has an EC50 [1, 8] of over 10 µM.
Compound `Nc1cc2c(cc1Br)NC(=O)C2=C1Nc2ccccc2C1=NO` [Compound 52] has an EC50 [1, 8] of over 10 µM.
With `O=C1Nc2c(Br)cccc2C1=C1Nc2ccccc2C1=NO` [Compound 21] the EC50 [1, 8] was over 10 µM.
`O=C1Nc2cc(Cl)ccc2C1=C1Nc2ccccc2C1=NO` [Compound 64] gave an EC50 [1, 8] of over 10 µM.
Work on `O=C1Nc2ccc(Br)cc2C1=C1Nc2ccccc2C1=O` [Compound 60] yielded an EC50 [1, 8] of over 10 µM.
`O=C1Nc2cc(I)ccc2C1=C1Nc2ccccc2C1=NO` [Compound 65] gave an EC50 [1, 8] of over 10 µM.
Work on `O=C1Nc2ccccc2/C1=C1/Nc2ccccc2C1=O` [Compound 66] yielded an EC50 [1, 8] of over 10 µM.
With `O=C1Nc2cc(N3CCNCC3)c([N+](=O)[O-])cc2C1=C1Nc2ccccc2C1=NO` [Compound 45] the EC50 [1, 8] was over 10 µM.
Work on `CC(=O)O/N=C1/C(=C2/C(=O)Nc3cc(Br)ccc32)Nc2ccccc21` [Compound 50] yielded an EC50 [1, 8] of over 10 µM.
`O=C1Nc2c(cccc2C(F)(F)F)C1=C1Nc2ccccc2C1=NO` [Compound 27] gave an EC50 [1, 8] of over 10 µM.
In the case of `O=C1Nc2c(Br)cccc2C1=C1Nc2ccccc2C1=O` [Compound 20], the EC50 [1, 8] is reported as over 10 µM.
